Test results as given in PubChem BioAssay AID330 (DTP/NCI, 2004).
“And” between values parts separate entries of the source, which are not always exact repeats. Identical values can stand only once. Toxic doses and inconclusive results are not listed.

System: P388 leukemia ip, CD2F1 mice, survival T/C
Experiment: NCI In Vivo Anticancer Drug Screen. Data for tumor model P388 Leukemia (intraperitoneal) in CD2F1 (CDF1) mice
Conditions: endpoint: median survival time, higher = longer survival
How it was run: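 Mice carrying the transplanted tumor received test compound or vehicle. Survival was recorded in each group, and the value is the treated-group measurement divided by that of the vehicle-treated control group.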

[1] = dose: 50.0 mg/kg/injection, schedule: Q01DX009 (ip), vehicle: Klucel (hydroxypropylcellulose) (HPC)
[2] = dose: 100.0 mg/kg/injection, schedule: Q04DX002 (ip), vehicle: saline with Tween-80
[3] = dose: 200.0 mg/kg/injection, schedule: Q04DX002 (ip), vehicle: saline with Tween-80
[4] = dose: 400.0 mg/kg/injection, schedule: Q04DX002 (ip), vehicle: saline with Tween-80
[5] = dose: 100.0 mg/kg/injection, schedule: Q01DX001 (ip), vehicle: Klucel (hydroxypropylcellulose) (HPC)
[6] = dose: 200.0 mg/kg/injection, schedule: Q01DX001 (ip), vehicle: Klucel (hydroxypropylcellulose) (HPC)
[7] = dose: 400.0 mg/kg/injection, schedule: Q01DX001 (ip), vehicle: Klucel (hydroxypropylcellulose) (HPC)
[8] = dose: 100.0 mg/kg/injection, schedule: Q01DX009 (ip), vehicle: saline with Tween-80
[9] = dose: 200.0 mg/kg/injection, schedule: Q01DX009 (ip), vehicle: saline with Tween-80
[10] = dose: 25.0 mg/kg/injection, schedule: Q01DX009 (ip), vehicle: saline with Tween-80
[11] = dose: 50.0 mg/kg/injection, schedule: Q01DX009 (ip), vehicle: saline with Tween-80

`Fc1ccc(-c2cc(-c3cc(-c4ccc(F)cc4)n[nH]3)[nH]n2)cc1` was tested, and the T/C (dose: 60.0 mg/kg/injection, schedule: Q01DX005 (ip), vehicle: Klucel + Tween-80) was 91 % of control, the T/C (dose: 120.0 mg/kg/injection, schedule: Q01DX005 (ip), vehicle: Klucel + Tween-80) was 88 % of control and the T/C (dose: 240.0 mg/kg/injection, schedule: Q01DX005 (ip), vehicle: Klucel + Tween-80) was 88 % of control.

`CC(C)(C)P(O)(=S)c1ccccc1` (stereo unspecified) (tested in a mixture with another compound) was tested, and the T/C (dose: 100.0 mg/kg/injection, schedule: Q04DX003 (ip), vehicle: Klucel (hydroxypropylcellulose) (HPC)) was 102 % of control, the T/C (dose: 200.0 mg/kg/injection, schedule: Q04DX003 (ip), vehicle: Klucel (hydroxypropylcellulose) (HPC)) was 102 % of control and the T/C (dose: 400.0 mg/kg/injection, schedule: Q04DX003 (ip), vehicle: Klucel (hydroxypropylcellulose) (HPC)) was 100 % of control.

With `CC12CC(C(=O)O)C3(O)CC(C)(C1)CC(C)(C2)C3` (stereo unspecified) (tested in a mixture with another compound) the T/C [1] was 109 % of control and the T/C (dose: 100.0 mg/kg/injection, schedule: Q01DX009 (ip), vehicle: Klucel (hydroxypropylcellulose) (HPC)) was 118 % of control.

In the case of `O=C(c1ccccc1)C1(c2ccccc2)CCN(Cc2ccccc2)CC1`, the T/C [2] is reported as 93 % of control, the T/C [3] is reported as 86 % of control and the T/C [4] is reported as 94 % of control.

With `C(=N\Nc1nnc2c(n1)[nH]c1ccccc12)/c1ccccc1` the T/C [2] was 89 % of control, the T/C [3] was 90 % of control and the T/C [4] was 98 % of control.

`CC(C)CCCCCCCCCCCCC(=O)NCC(=O)NC1C(CO)OC(Nc2ncnc3nc[nH]c23)C(O)C1O` (stereo unspecified) was tested, and the T/C (dose: 0.13 mg/kg/injection, schedule: Q01DX009 (ip), vehicle: other) was 114 % of control, the T/C (dose: 0.5 mg/kg/injection, schedule: Q01DX009 (ip), vehicle: other) was 161 % of control and the T/C (dose: 1.0 mg/kg/injection, schedule: Q01DX009 (ip), vehicle: other) was 105 % of control. The T/C (dose: 2.0 mg/kg/injection, schedule: Q01DX009 (ip), vehicle: other) was 89 % of control.

For `N#CCN(CNC(=O)c1ccccc1)N=O`, the T/C [2] was 101 % of control and the T/C [3] was 105 % of control.

In the case of `COc1ccc(/C=C/Cc2cc3c(cc2O)OCO3)cc1`, the T/C (dose: 60.0 mg/kg/injection, schedule: Q01DX005 (ip), vehicle: saline with Tween-80) is reported as 104 % of control, the T/C (dose: 120.0 mg/kg/injection, schedule: Q01DX005 (ip), vehicle: saline with Tween-80) is reported as 101 % of control and the T/C (dose: 240.0 mg/kg/injection, schedule: Q01DX005 (ip), vehicle: saline with Tween-80) is reported as 101 % of control.

With `COc1cc2c(cc1OC)C(CCN1C(=O)CCC1=O)=NCC2` the T/C (dose: 50.0 mg/kg/injection, schedule: Q01DX009 (ip), vehicle: saline sonified) was 100 % of control, the T/C (dose: 100.0 mg/kg/injection, schedule: Q01DX009 (ip), vehicle: saline sonified) was 100 % of control and the T/C (dose: 200.0 mg/kg/injection, schedule: Q01DX009 (ip), vehicle: saline sonified) was 95 % of control.

In the case of `C[n+]1c2n(c3ccccc31)CCn1c-2[n+](C)c2ccccc21`, the T/C (dose: 12.5 mg/kg/injection, schedule: Q01DX009 (ip), vehicle: Klucel (hydroxypropylcellulose) (HPC)) is reported as 100 % of control and 103 % of control and 117 % of control, the T/C (dose: 25.0 mg/kg/injection, schedule: Q01DX009 (ip), vehicle: Klucel (hydroxypropylcellulose) (HPC)) is reported as 102 % of control and 103 % of control (2×) and the T/C [1] is reported as 100 % of control and 120 % of control and 96 % of control.

`N#Cc1c(C(=O)NN)c2c(-c3ccccc3)n[nH]c(=O)c2[nH]c1=O` was tested, and the T/C (dose: 100.0 mg/kg/injection, schedule: Q01DX001 (ip), vehicle: saline with Tween-80) was 100 % of control and the T/C (dose: 200.0 mg/kg/injection, schedule: Q01DX001 (ip), vehicle: saline with Tween-80) was 91 % of control.

For `CCOC1CN(C(=O)ON)N1C(=O)ON` (stereo unspecified), the T/C (dose: 50.0 mg/kg/injection, schedule: Q01DX009 (ip), vehicle: saline) was 109 % of control, the T/C (dose: 100.0 mg/kg/injection, schedule: Q01DX009 (ip), vehicle: saline) was 107 % of control and the T/C (dose: 200.0 mg/kg/injection, schedule: Q01DX009 (ip), vehicle: saline) was 89 % of control.

For `COC1/C=C\C=C(/C)C(=O)NC2=CC(=O)C=C(C2=O)C(OC)C(C)CC(OC)C(OC)C(C)/C=C(/C)C1OC(N)=O` (stereo unspecified), the T/C (dose: 3.0 mg/kg/injection, schedule: Q01DX009 (ip), vehicle: Klucel (hydroxypropylcellulose) (HPC)) was 92 % of control and the T/C (dose: 6.0 mg/kg/injection, schedule: Q01DX009 (ip), vehicle: Klucel (hydroxypropylcellulose) (HPC)) was 101 % of control.

With `COc1ccc(CC2C=CCN2C(=O)OCc2ccccc2)cc1` (stereo unspecified) the T/C [5] was 106 % of control, the T/C [6] was 99 % of control and the T/C [7] was 99 % of control.

For `CC(=O)OC(COS(C)(=O)=O)C(OC(C)=O)C(OC(C)=O)C(COS(C)(=O)=O)OC(C)=O` (stereo unspecified), the T/C [5] was 108 % of control, the T/C [6] was 100 % of control and the T/C [7] was 117 % of control.

In the case of `CCOc1ccc(Br)cc1/C=N\N=C\c1cc(Br)ccc1OCC`, the T/C [8] is reported as 90 % of control, the T/C (dose: 100.0 mg/kg/injection, schedule: Q04DX003 (ip), vehicle: saline with Tween-80) is reported as 95 % of control and the T/C [9] is reported as 100 % of control. For the same molecule, the T/C (dose: 200.0 mg/kg/injection, schedule: Q04DX003 (ip), vehicle: saline with Tween-80) was 95 % of control, the T/C (dose: 400.0 mg/kg/injection, schedule: Q01DX009 (ip), vehicle: saline with Tween-80) was 100 % of control and the T/C (dose: 400.0 mg/kg/injection, schedule: Q04DX003 (ip), vehicle: saline with Tween-80) was 100 % of control.

In the case of `COC1=CS(C)(=O)=CC(SC)=C1C#N` (stereo unspecified), the T/C (dose: 50.0 mg/kg/injection, schedule: Q04DX002 (ip), vehicle: Klucel (hydroxypropylcellulose) (HPC)) is reported as 99 % of control, the T/C (dose: 100.0 mg/kg/injection, schedule: Q04DX002 (ip), vehicle: Klucel (hydroxypropylcellulose) (HPC)) is reported as 99 % of control and the T/C (dose: 200.0 mg/kg/injection, schedule: Q04DX002 (ip), vehicle: Klucel (hydroxypropylcellulose) (HPC)) is reported as 98 % of control.

With `N#CC1=C(C#N)C(=O)c2ccccc2C1=O` the T/C [10] was 104 % of control and the T/C [11] was 104 % of control.

In the case of `O=[N+]([O-])c1cc2[nH]cnc2c([N+](=O)[O-])c1NCCO`, the T/C [11] is reported as 110 % of control, the T/C [8] is reported as 108 % of control and the T/C [9] is reported as 94 % of control.

`O=C1CS/C(=N\C(=O)Nc2ccc(Cl)c(Cl)c2)N1` was tested, and the T/C (dose: 6.25 mg/kg/injection, schedule: Q01DX009 (ip), vehicle: saline) was 91 % of control, the T/C (dose: 12.5 mg/kg/injection, schedule: Q01DX009 (ip), vehicle: saline) was 100 % of control and the T/C (dose: 25.0 mg/kg/injection, schedule: Q01DX009 (ip), vehicle: saline) was 94 % of control. The T/C (dose: 50.0 mg/kg/injection, schedule: Q01DX009 (ip), vehicle: saline + alcohol) was 88 % of control, the T/C (dose: 100.0 mg/kg/injection, schedule: Q01DX009 (ip), vehicle: saline + alcohol) was 91 % of control and the T/C (dose: 200.0 mg/kg/injection, schedule: Q01DX009 (ip), vehicle: saline + alcohol) was 88 % of control.

`OCC(O)COCCCCCCCCCCCCCC1C=CCC1` (stereo unspecified) was tested, and the T/C (dose: 100.0 mg/kg/injection, schedule: Q04DX003 (ip), vehicle: saline) was 95 % of control, the T/C (dose: 200.0 mg/kg/injection, schedule: Q04DX003 (ip), vehicle: saline) was 89 % of control and the T/C (dose: 400.0 mg/kg/injection, schedule: Q04DX003 (ip), vehicle: saline) was 96 % of control.

With `O=c1[nH]c(CN2CCOCC2)ncc1C1CCCCC1` the T/C [11] was 97 % of control, the T/C [8] was 100 % of control and the T/C [9] was 95 % of control.

In the case of `Cn1c(-c2ccccc2)c/c(=N\NS(C)(=O)=O)c2cc(S(=O)(=O)O)ccc21`, the T/C [11] is reported as 96 % of control, the T/C [8] is reported as 91 % of control and the T/C [9] is reported as 98 % of control.

In the case of `CCCC1CC[N-]CC1.CCCC1CC[N-]CC1.[Br][Pt+2]([Br])([Br])[Br]`, the T/C (dose: 1.56 mg/kg/injection, schedule: Q01DX009 (ip), vehicle: saline with Tween-80) is reported as 94 % of control, the T/C (dose: 3.13 mg/kg/injection, schedule: Q01DX009 (ip), vehicle: saline with Tween-80) is reported as 87 % of control and the T/C (dose: 6.25 mg/kg/injection, schedule: Q01DX009 (ip), vehicle: saline with Tween-80) is reported as 95 % of control. For the same molecule, the T/C (dose: 12.5 mg/kg/injection, schedule: Q01DX009 (ip), vehicle: saline with Tween-80) was 98 % of control and the T/C [10] was 123 % of control.

In the case of `O=C1C2CC(Cl)C(SSC3CC4C(=O)N(SC(Cl)(Cl)C(Cl)Cl)C(=O)C4CC3Cl)CC2C(=O)N1SC(Cl)(Cl)C(Cl)Cl` (stereo unspecified), the T/C (dose: 6.25 mg/kg/injection, schedule: Q01DX005 (ip), vehicle: saline with Tween-80) is reported as 108 % of control and 110 % of control, the T/C (dose: 12.5 mg/kg/injection, schedule: Q01DX005 (ip), vehicle: saline with Tween-80) is reported as 101 % of control and 107 % of control and the T/C (dose: 50.0 mg/kg/injection, schedule: Q01DX005 (ip), vehicle: saline with Tween-80) is reported as 115 % of control.

In the case of `C1CC(N2CC2)CCC1N1CC1` (stereo unspecified), the T/C (dose: 1.56 mg/kg/injection, schedule: Q01DX009 (ip), vehicle: saline) is reported as 182 % of control and the T/C (dose: 3.12 mg/kg/injection, schedule: Q01DX009 (ip), vehicle: saline) is reported as 237 % of control.
